The structures appear in SMILES notation. “Also recorded” adds a separate entry of the source.

Test [1] relates to ^125 I-Queb (23K protein). In words: Binding of ^125 I-Queb to ligand-sepharose. On the set-up: species or system bovine. Particulars: for Unbound CPM: 1×10^6 cpm ^125 I-Queb incubated 2 hours with ligand-sepharose, CPM in supernatant and three PBS/Ca++; for Unbound CPM / Bound CPM: Mg++ washes, n = 3; for Bound CPM: CPM associated with sepharose after removal of supernatant and three PBS/Ca++, ± S.D.; for % Bound: share of available ^125 I-Queb bound to ligand-sepharose; for Binding of ^125 I-Queb to ligand-sepharose and its elution (in words): successive elution with 20mM EDTA, 1M NaCl, 1M urea, 8M urea. How it is done: Queb was isolated from the 15% SDS-PA gels by electroelution, and labelled with ^125 I according to Example IV. […] Equal quantities (1×10^6 cpm, 50 μl ) of ^125 I-Queb were incubated for 2 hours with equal aliquots (50 μl ) of ligand-sepharose. The buffer was then isolated and the sepharose was washed with PBS until less than 1×10^4 cpm were measured in the eluent.

A further test relates to Queb. In words: Affinity chromatography of BAF proteins on ligand-sepharose with stepwise elution. The class given is binding, bovine. Particulars: third trimester BAF; elution with 20 mM EDTA, 1M NaCl, 1M urea, 8M urea. An excerpt:
The isolation of Queuine binding factors was completed using affinity chromatography. CNBr-activated sepharose 4B (Pharmacia) was coupled with Queuine, guanosine or glycine using the manufacturers described procedure. The coupling ratio of Queuine to the amount of dry sepharose was 2.7 μmole to 0.1 g and the ratio of guanosine to sepharose was 1.3 μmole to 0.1 g. The procedure used targeted coupling of Queuine and guanosine at the 2-amino group of the purine ring.
The affinity-sepharose was equilibrated with phosphate buffered saline (PBS) containing 2 mM CaCl2, and MgCl2 contained in a glass pipette. The sample was allowed to flow through the column containing the affinity-sepharose, and the bound material was eluted with a successive series of PBS buffers (pH 7.5) containing: 20 mM EDTA, 1M NaCl, 1M urea, 8M urea. Once eluted, the protein was precipitated with 95% ethanol containing 0.5M potassium acetate, washed twice in 95% ethanol, and then solubilized in SDS-PAGE sample buffer, 0.25M tris-HCl, pH 6.8; 10% glycerol; 2% SDS; 0.0025% bromophenol blue.
Third trimester BAF (50 ml) was passed over a 0.4 ml Queuine-sepharose column. The column was then washed with PBS containing 2mM of CaCl2 and MgCl2 until the eluent contained<0.01 OD (280 nm). […] Eluent fractions (200 μl ) were collected and spectrophotometrically monitored (280 nm). […]

Test [2] deals with HL 60 cells (ATCC No. CCL 240). In words: Cell growth of HL 60 cells. The format is cell-based.
Another test deals with HL-60 cells. In words: Differentiation response of HL-60 cells. The class given is cell-based. The following applies: TPA-induced differentiation where stated.
The next test has as its system ^125 I-Queb. In words: Effect of TPA on ^125 I-Queb binding to Queuine-sepharose. Particulars: TPA at 50% of the concentration of Queuine bound to sepharose. Also on record: species or system bovine. How it is done: TPA, at 50% of the concentration of the Queuine bound to sepharose, was evaluated for its ability to antagonize ^125 I-Queb binding to Queuine-sepharose. FIG. 3A illustrates the ^125 I-Queb binding without TPA and FIG. 3B illustrates the results with TPA. […] However, the elution patterns of ^125 I-Queb from the Queuine-sepharose was altered in the TPA samples.

On to `NCC(=O)O` [Glycine], for which, in test [1], the “Unbound CPM” value is recorded as 802,682 CPM; the “Bound CPM” value is 70,500 ± 8,800 CPM; the “% Bound” value is on record as 8.08%; the “Binding of ^125 I-Queb to ligand-sepharose and its elution (in words)” value (from here on “Binding of ^125 I-Queb”) is recorded as “minimal amount”.

In the case of `Nc1nc2c(ncn2[C@@H]2O[C@H](CO)[C@@H](O)[C@H]2O)c(=O)[nH]1` [Guanosine], in test [1], the “Unbound CPM” value is 843,385 CPM; the “Bound CPM” value is recorded as 104,740 ± 12,885 CPM; the “% Bound” value is 11.05%; the “Binding of ^125 I-Queb” value is “No ^125 I-Queb was found eluted”. The “Binding of ^125 I-Queb” value in test [1] (listed as guanine) is given as “minimal amount”. Further, the “Binding of Queb from BAF to ligand-sepharose column” value with Queb is “no presence of Queb that bound with high affinity; also recorded: did not bind”.

Take `Nc1nc2[nH]cc(CN[C@H]3C=C[C@H](O)[C@@H]3O)c2c(=O)[nH]1` [Queuine]: in test [1], the “Unbound CPM” value is 404,060 CPM; the “Bound CPM” value was 851,350 ± 91,830 CPM; the “Binding of ^125 I-Queb” value is “only eluted by 8M urea”. In the test with Queb, the “Binding of Queb from BAF to ligand-sepharose column” value is reported as “eluted only under stringent elution conditions of 8 M urea; also recorded: high binding affinity”. Besides, the “Effect on cell growth (in words)” value in test [2] is “both stimulate and inhibit”. Also, in test [2] (Homo sapiens, read-out: ID50, inhibition of cell growth), the IC50 stood at 7.8 µM. The “Effect on differentiation response (in words)” value in the test with HL-60 cells is recorded as “modulate the ability of cells to respond to differentiation signals; also recorded: markedly sensitized HL-60 cells to a TPA-induced differentiation response; also recorded: inhibit TPA when used concurrently”.

`CCCCCCCCCCCCCC(=O)O[C@@H]1[C@@H](C)[C@@]2(O)[C@@H](C=C(CO)C[C@]3(O)C(=O)C(C)=C[C@@H]23)[C@@H]2C(C)(C)[C@]12OC(C)=O` [TPA, 12-O-tetradecanoyl-phorbol-13-acetate]: the “Effect on amount of ^125 I-Queb bound to Queuine-sepharose (in words)” value with ^125 I-Queb is given as “did not quantitatively alter”. Besides, the “Effect on elution of ^125 I-Queb from Queuine-sepharose (in words)” value in the test with ^125 I-Queb (without TPA 8 M urea needed) is 20 mM EDTA was able to elute and eluted under milder conditions of 20 mM EDTA.

These data come from patent US5312900A, “23K protein with binding specificity for queuine” (La Jolla Cancer Research Foundation, priority 1991, dated 1994).
